# According to PubChem BioAssay AID712 (Emory University Molecular Libraries Screening Center, 2007):
# The source made the active and inactive calls. How the calls were made is not given here.
# Target: Heat shock protein HSP 90-alpha (Homo sapiens) (UniProt P07900)
# Assay: Hsp90 blockade concentration-response – dose response (AID 712)
# Conditions: Hsp90 inhibition assay
row,IC50,SMILES
1,> 50 µM (inactive),NCc1cc(S(=O)(=O)Nc2cc(O)cc3cccnc23)ccc1F
2,> 50 µM (inactive),Cc1cc(=O)oc2c(N)c(OCc3ccccc3)ccc12
3,> 50 µM (inactive),N#Cc1ccc(CSc2nnc(Nc3ccccc3)s2)cc1
4,> 50 µM (inactive),Nc1cccc(S(=O)(=O)Nc2ccc(O)c(-c3ccccc3O)c2)c1
5,> 50 µM (inactive),CCc1cc(C(=O)Cc2cscn2)c(O)cc1O
6,> 50 µM (inactive),O=C(NCc1cccnc1)C1c2ccccc2C(=O)N1Cc1ccco1 (stereo not drawn)
7,> 50 µM (inactive),O=C1C(c2nc3ccccc3s2)=C(O)c2ccccc21
8,> 50 µM (inactive),CCc1cc(C(=O)Cn2cnc3ccccc32)c(O)cc1O
9,> 50 µM (inactive),CC(C)(C)OC(=O)Nc1cccc(NS(=O)(=O)c2cc(Cl)ccc2Cl)c1-c1ccccc1O
10,< 1.56 µM,O=C1c2ccccc2-c2onc3ccc(NCc4ccco4)c1c23
11,< 1.56 µM,Nc1cc2ccccc2c(O)c1O
12,> 50 µM (inactive),CCc1nc(SCC(=O)c2ccc(O)cc2O)n[nH]1
13,> 50 µM (inactive),O=[N+]([O-])c1ccc(NS(=O)(=O)c2ccccc2)c(O)c1
14,> 50 µM (inactive),COc1ccc(-n2nc3c(c2NC(=O)c2ccc(Br)cc2)CS(=O)C3)cc1 (stereo not drawn)
15,> 50 µM (inactive),O=S(=O)(Nc1ccc(O)c(-c2ccccc2O)c1)c1cc(Cl)ccc1Cl
16,> 50 µM (inactive),COc1cc(NCCCC(C)=O)c2nccc(OCc3ccccc3)c2c1
17,13.5 µM,O=C(NCCCn1ccnc1)c1noc2c1CCc1ccccc1-2
18,> 50 µM (inactive),Nc1ccc(NS(=O)(=O)c2ccccc2[N+](=O)[O-])cc1-c1ccccc1O
19,inactive,Cc1ccc(CNc2ccc(O)cc2)cc1
20,> 50 µM (inactive),O=C(Nc1nc(-c2ccc3c(c2)OCO3)cs1)C1COc2ccccc2O1 (stereo not drawn)
21,> 50 µM (inactive),Nc1cc(=O)[nH]c(SCC(=O)c2ccc3c(c2)OCO3)n1
22,> 50 µM (inactive),Nc1ccc(NS(=O)(=O)c2cc(Cl)ccc2Cl)cc1-c1ccccc1O
23,< 1.56 µM,O=C1C(c2c(O)[nH]c3ccc([N+](=O)[O-])cc23)=Nc2ccccc21
24,7.72 µM,O=C(CSc1n[nH]c(-c2ccccc2)n1)c1ccc(O)c(O)c1

# More lines, now with the values behind:
row,SMILES,IC50
1,CCCC(C)C(=O)Nc1cc(OC)ccc1OC (stereo not drawn),> 50 µM (inactive)
2,O=c1oc2c3c4c(cc2s1)CCCN4CCC3,> 50 µM (inactive)
3,COc1ccc2c(c1-c1cc(NS(=O)(=O)c3cc(Cl)ccc3Cl)ccc1N)OCO2,> 50 µM (inactive)
4,CCn1nnc(NC(=O)COc2cc(C)ccc2C(C)C)n1,> 50 µM (inactive)
5,NCCCCCNc1cc(O)cc2cccnc12,< 1.56 µM
6,COc1cccc2c1C(=O)c1c(O)c3c(c(O)c1C2=O)C[C@@](O)(C(C)=O)C[C@@H]3O[C@H]1C[C@H](N)[C@H](O)[C@H](C)O1,0.174 µM
7,O=C(c1sc2ccccc2c1Cl)N(Cc1ccco1)C1CCS(=O)(=O)C1 (stereo not drawn),> 50 µM (inactive)
8,O=C1c2cccnc2C(=O)N1Cc1ccc2c(c1)OCO2,> 50 µM (inactive)
9,CCCC(C)N(CC)CCNc1cc(OC)cc2cccnc12 (stereo not drawn),12.5 µM
10,C=CCNC(=O)CN(c1cccc(Br)c1)S(C)(=O)=O,> 50 µM (inactive)
11,Nc1cccc2cccnc12,> 50 µM (inactive)
12,COc1cc(NCCCC(C)=O)c2nccc(Cl)c2c1,> 50 µM (inactive)
13,CCOC(=O)C1=C(C)OC(N)=C(C(=O)OCC)C1c1cccnc1 (stereo not drawn),> 50 µM (inactive)
14,Nc1ccc2[nH]ccc2c1,> 50 µM (inactive)
15,Nc1cc(N)c2cccnc2c1O,3.13 µM
16,CC(=O)Oc1cc2oc(=O)cc(C)c2cc1OC(C)=O,> 50 µM (inactive)
17,COc1ccc(N2CSC3=C(C#N)C(c4ccc(OC)c(OC)c4)CC(=O)N3C2)c(OC)c1 (stereo not drawn),> 50 µM (inactive)
18,COc1cc(NCCCC(C)N)c2nccc(Cl)c2c1 (stereo not drawn),12.5 µM
19,Cc1ccc(S(=O)(=O)Nc2ccc3oc(=O)sc3c2)c(C)c1,inactive
20,CC1(C)CC(=O)c2c(O)cc(O)cc2O1,> 50 µM (inactive)
21,CCCCCC(=O)N1CC2(C)CN(C(=O)CCCCC)CC(C)(C1)C2=O,> 50 µM (inactive)
22,Nc1cccc2cnccc12,> 50 µM (inactive)
23,CN(C)C=Nc1c(Br)cc(Br)c2nonc12,> 50 µM (inactive)
24,CCOc1ccc(S(=O)(=O)Nc2cc(Sc3ncn[nH]3)c3oc(=O)sc3c2)cc1,inactive
